Data published in PMC12766730, “Controlled Self-Immolative Release of β‑Lapachone via an Optimized para-Hydroxybenzyl Linker for Targeted Pancreatic Cancer Therapy” (Journal of the American Chemical Society, 2025).
Where two headings read alike, the source gives them in different places.

Tests used:
[1] = Release of β-lapachone (1) from deprotected PHB/PAB linkers (3 or 25) in citrate-phosphate buffers pH 3–10, analytical HPLC; format: physicochemical; details: for release rate faster than unsubstituted parent: 3f vs 3a, 25 vs 4
Method: First, the purified mixture of two prodrug diastereomers (16a–j) for each PHB derivative was incubated with β-glucuronidase. This enabled full removal of the glucuronide moiety from both diastereomers of the prodrug within 2–15 min, leaving a mixture of two PHB-β-lapachone enantiomers (3a–j, Figure c). For PAB compound 22, penicillin G amidase was used in place of β-glucuronidase to give a mixture of two PAB-β-lapachone enantiomers (25). The 3 (or 25) solution was then spiked into citrate-phosphate buffers from pH 3–10, and release of 1 from 3 (or 25) was measured at various time points by analytical HPLC. A single peak for the two enantiomers of 3 was observed after glucuronide removal, and thus the measured k obs was for both enantiomers in the mixture.
3 Release rate comparison for PHB and PAB prodrugs. The mechanisms of release for the β-glucuronide–PHB prodrug derivatives (a) and the PAB derivative (b) are shown. β-glucuronidase or penicillin G amidase deprotects the PHB or PAB linkers, yielding 3 or 25, respectively. A 1,6-elimination then occurs, releasing the hydroquinone form of β-lapachone, which then oxidizes into the ortho-quinone. (c) The substituents on the PHB/PAB linker for each derivative are shown and classified into which strategy they employed, lowering phenolate pK a or stabilizing the elimination TS. BLap = β-lapachone in its α-hydroxy ketol form (refer to panel a). The predicted pK a values are also shown, calculated using MolGpKa. (d) The representative HPLC traces of a release experiment for 3g at pH 7 are shown (RT: retention time) normalized to the warfarin (WF) internal standard (IS, RT = 11.6 min). The peak for 3g (RT = 12.5 min) decreases while the peak for 1 (RT = 10.8 min) increases over time. The traces for all other derivatives at each pH are included in Figures S10–S20, S34–S45. (e) The calculated k obs values from these release kinetic experiments for each PHB derivative are plotted versus pH on a logarithmic scale. Derivatives 3a–e were designed to lower the PHB phenol pK a, while derivatives 3f–j were designed to stabilize the 1,6-elimination TS. (f) The first-order reaction rate constants of the PAB derivatives 4 (pink) and 25 (purple) are plotted together with 3a (black) and the best-performing PHB derivatives 3f (cyan) and 3i (dark green) for direct comparison. The derivations of the plotted first-order k obs values from linearized initial velocities measured in triplicate are shown in Figures S23–S33. […]
Over time, the intensity of the 3/25 peak decreased, while the intensity of the 1 peak increased (Figure d). A standard curve for β-lapachone (Figure S22) was prepared, enabling quantification of the released β-lapachone.

[2] = HPLC stability assay of prodrugs in buffers pH 3, 5, 7, 7.4 (PBS), 9 at 37 °C for 72 h without trigger; format: physicochemical; details: for stability of the prodrug without triggering enzyme: 37 °C, 72 h, pH 3–9; for premature lapachone release, percent of total prodrug: 72 h at 37 °C, no H2O2
Method: The diastereomeric mixture of each β-glucuronide–PHB-β-lapachone prodrug (16a–j) and PAB derivative 22 were then tested for stability in citrate-phosphate buffers across a range of pHs (3, 5, 7, 7.4 (PBS), 9) via an HPLC stability assay. For derivatives 16a, 16b, 16d, 16e, 16h, and 16j, when no β-glucuronidase enzyme was added, both diastereomers of 16 were fully stable at 37 °C for 72 h (Figures a,d, S63, S64, S66–68, S71, and S73). […] This premature release was greatest at acidic pH 3 for 16g, with very minimal lapachone release detected at pH 5–9 (Figure c). The released lapachone was quantified and compared to the starting concentration of each prodrug to calculate the percent of the prodrug that had been prematurely released (Figures f,g, S76). […] Therefore, a trade-off exists between ring activation, improving the release rate from 3 while also decreasing prodrug stability, and it rendered 16g clinically disadvantageous.  5 Stability of prodrugs is pH dependent. The representative HPLC traces for (a) a stable prodrug 16a and (b) an unstable prodrug 16g are shown after incubation at 37 °C in pH 7.4 PBS buffer. […] (c) The area of the lapachone peak for 16g normalized to the IS was plotted, displaying substantial growth over time at pH 3. […] For panels c–g, each value is plotted as the mean ± SD of three replicates. The HPLC traces (Figures S50–S62) and peak area graphs (Figures S63–S75) for all other derivatives can be found in the Supporting Information. The stability of 26 was also evaluated from pH 3–9 (Figures d,f–h S86–S87). […] This degradation was the largest at pH 9, with a measurable decrease in the prodrug peak area after 72 h (Figure g). The lapachone released after 72 h was quantified using a standard curve (Tables S6.1–S6.2). At pH 3 and 5, approximately 0.2% of the total prodrug lapachone had been released.

PANC-1 = test: PDAC cell viability after 72 h of treatment, PANC-1; format: cell-based
Method: (§1) All ortho-quinone prodrug derivatives were tested on two pancreatic cancer cell lines, PANC-1 and AsPC-1, to assess efficacy in cell killing (Figures , S88–89, S91, Tables , and S8.1). Exogenous β-glucuronidase was added to the cell media to mimic the extracellular enzyme present in the TME. […] Those derivatives with release rates slower than that of 16a, like 16e, had less efficacy in cells comparatively (Table ).
(§2) 7 PDAC cell viability with prodrug treatment. Representative PANC-1 (a) and AsPC-1 (b) cell viability data of four β-lapachone prodrug derivatives after 72 h of treatment with exogenous β-glucuronidase added. Panels (c, d) show the toxicity of functional prodrugs up to 100 μM in PANC-1 (c) and AsPC-1 (d) cells without exogenous β-glucuronidase enzyme present after 72 h incubation.
(§3) To assess the TW of the prodrug derivatives, we tested each of them in both the PANC-1 and AsPC-1 cell lines at up to 100 μM without the β-glucuronidase enzyme present. In agreement with the HPLC stability assay data, we saw no toxicity in all stable prodrug derivatives up to this concentration (Figure c,d). […] In comparison, all the stable glucuronide prodrug derivatives retained 100% viability at 100 μM. […] It is generally considered that a drug has a good therapeutic safety profile if the TI is greater than 10, which our best derivatives far exceed, signaling that our prodrug is safe to deliver systemically in future in vivo experiments and should not cause any adverse effects in areas where β-glucuronidase is not overexpressed. ,

AsPC-1 = test: PDAC cell viability after 72 h of treatment, AsPC-1; format: cell-based; details: for IC50: Homo sapiens
Method: as §1, §2, §3

[3] = exogenous β-glucuronidase added, average ± SD of biological replicates
[4] = Homo sapiens, PANC-1, exogenous β-glucuronidase added, average ± SD of biological replicates, read-out: PANC-1 IC50
[5] = ASPC1, exogenous β-glucuronidase added, average ± SD of biological replicates, read-out: AsPC-1 IC50
[6] = Homo sapiens, PANC-1, exogenous β-glucuronidase added, representative experiment, read-out: IC50 on PANC-1, representative viability data (Figure 7a)
[7] = ASPC1, exogenous β-glucuronidase added, representative experiment, read-out: IC50 on AsPC-1, representative viability data (Figure 7b)

stability of the prodrug without triggering enzyme [2]	IC50 (PANC-1; [4]) [µM]	IC50 (AsPC-1; [5]) [µM]	Structure (SMILES)	further results
fully stable			CCCN(C)S(=O)(=O)c1cc(CC2(O)C(=O)C3=C(OC(C)(C)CC3)c3ccccc32)ccc1O[C@@H]1O[C@H](C(=O)O)[C@@H](O)[C@H](O)[C@H]1O (single isomer, unassigned) [16e]	
trace β-lapachone release was detected			CC1(C)CCC2=C(O1)c1ccccc1C(O)(Cc1c(F)c(F)c(O[C@@H]3O[C@H](C(=O)O)[C@@H](O)[C@H](O)[C@H]3O)c(F)c1F)C2=O (some centres unmarked) [16c]	PANC-1 IC50 (PANC-1; [3]): Inactive; AsPC-1 IC50 (AsPC-1; [3]): Inactive
fully stable	1.2 ± 0.4	3.2 ± 1.7	COc1cc(CC2(O)C(=O)C3=C(OC(C)(C)CC3)c3ccccc32)cc(OC)c1O[C@@H]1O[C@H](C(=O)O)[C@@H](O)[C@H](O)[C@H]1O (some centres unmarked) [16h]	
trace β-lapachone release was detected	1.2 ± 0.3	1.6 ± 0.6	COc1cc(O[C@@H]2O[C@H](C(=O)O)[C@@H](O)[C@H](O)[C@H]2O)cc(OC)c1CC1(O)C(=O)C2=C(OC(C)(C)CC2)c2ccccc21 (mixture of isomers) [16g]	IC50 (PANC-1; Homo sapiens, PANC-1, no enzyme, value printed in the picture, read-out: IC50, prodrug toxicity without β-glucuronidase on PANC-1 (Figure 7c)): 20 µM; IC50 (PANC-1; Homo sapiens, PANC-1, no release-triggering enzyme, tested up to 100 μM, read-out: IC50 in PANC-1 without exogenous β-glucuronidase): 26 ± 6 µM; IC50 (AsPC-1; ASPC1, no enzyme, value printed in the picture, read-out: IC50, prodrug toxicity without β-glucuronidase on AsPC-1 (Figure 7d)): 68 µM; IC50 (AsPC-1; ASPC1, no release-triggering enzyme, tested up to 100 μM, read-out: IC50 in AsPC-1 without exogenous β-glucuronidase): 75 ± 7 µM
fully stable	1.1 ± 0.4	2.8 ± 1	COCCOc1cc(O[C@@H]2O[C@H](C(=O)O)[C@@H](O)[C@H](O)[C@H]2O)ccc1CC1(O)C(=O)C2=C(OC(C)(C)CC2)c2ccccc21 (some centres unmarked) [16j]	
fully stable	21 ± 3		CC1(C)CCC2=C(O1)c1ccccc1C(O)(Cc1c(F)cc(O[C@@H]3O[C@H](C(=O)O)[C@@H](O)[C@H](O)[C@H]3O)cc1F)C2=O (some centres unmarked) [16d]	
fully stable	9.6 ± 0.9	19 ± 3	CC1(C)CCC2=C(O1)c1ccccc1C(O)(Cc1ccc(O[C@@H]3O[C@H](C(=O)O)[C@@H](O)[C@H](O)[C@H]3O)cc1)C2=O (some centres unmarked) [16a]	IC50 (PANC-1; [6]): 11 µM; IC50 (AsPC-1; [7]): 16 µM
fully stable	11 ± 2	24	CC1(C)CCC2=C(O1)c1ccccc1C(O)(Cc1cc(F)c(O[C@@H]3O[C@H](C(=O)O)[C@@H](O)[C@H](O)[C@H]3O)c(F)c1)C2=O (some centres unmarked) [16b]	
trace β-lapachone release was detected	0.8 ± 0.5	0.9 ± 0.5	CC(c1ccc(O[C@@H]2O[C@H](C(=O)O)[C@@H](O)[C@H](O)[C@H]2O)cc1)C1(O)C(=O)C2=C(OC(C)(C)CC2)c2ccccc21 (some centres unmarked) [16i]	IC50 (PANC-1; [6]): 0.3 µM; IC50 (AsPC-1; [7]): 0.5 µM

The remaining lines, values behind:

Structure (SMILES)	stability of the prodrug without triggering enzyme [2]	IC50 (PANC-1; [4]) [µM]	IC50 (AsPC-1; [5]) [µM]	further results
COc1cc(O)cc(OC)c1CC1(O)C(=O)C2=C(OC(C)(C)CC2)c2ccccc21 (centres unmarked) [3g]				acceleration of release rate at pH 5 ([1]; pH 5, compared with unsubstituted 3a): ~2200 fold; acceleration of release rate at pH 7.5 ([1]; pH 7.5, compared with unsubstituted 3a): ~800 fold
COc1cc(N)ccc1CC1(O)C(=O)C2=C(OC(C)(C)CC2)c2ccccc21 (centres unmarked) [compound 25]				release rate faster than unsubstituted parent [1]: around 2 orders of magnitude
COc1cc(O)ccc1CC1(O)C(=O)C2=C(OC(C)(C)CC2)c2ccccc21 (centres unmarked) [3f]				release rate faster than unsubstituted parent [1]: around 2 orders of magnitude
COc1cc(NC(=O)Cc2ccccc2)ccc1CC1(O)C(=O)C2=C(OC(C)(C)CC2)c2ccccc21 (centres unmarked) [compound 22]	trace β-lapachone release was detected			
CC1(C)CCC2=C(O1)c1ccccc1C(O)(Cc1ccccc1)C2=O (centres unmarked) [compound 27, reference compound]				IC50 (PANC-1; exogenous β-glucuronidase added, average ± SD of biological replicates, read-out: PANC-1 IC50): 70 µM; IC50 (PANC-1; no release-triggering enzyme, tested up to 100 μM, read-out: IC50 in PANC-1 without exogenous β-glucuronidase): 70 µM
CC1(C)CCC2=C(O1)c1ccccc1C(O)(Cc1ccc(B(O)O)cc1)C2=O (centres unmarked) [compound 26, reference compound]				premature lapachone release, percent of total prodrug ([2]; pH 3): approximately 0.2%; premature lapachone release, percent of total prodrug ([2]; pH 5): approximately 0.2%; premature lapachone release, percent of total prodrug ([2]; pH 7): ~0.6%; premature lapachone release, percent of total prodrug ([2]; pH 7.4): ~2.3%; premature lapachone release, percent of total prodrug ([2]; pH 9): ~10.9%
CC1(C)CCC2=C(O1)c1ccccc1C(=O)C2=O [compound 1, β-lapachone, reference compound]		1.8 ± 0.2	5.4 ± 0.7	IC50 (AsPC-1; [7]): 4.7 µM
